Experimental data as given in ChEMBL document CHEMBL2375237, “Optimization of allosteric MEK inhibitors. Part 1: Venturing into underexplored SAR territories” (Bioorg Med Chem Lett, 2013).

The compounds below were run on HCT-116 (assay: Antiproliferative activity against human HCT116 cells expressing KRAS G13D mutant). Conditions: not given.
Type: functional, cell-based

Point of comparison: `CC(=O)Nc1cccc(Oc2cc(F)cc(Nc3ccc(I)cc3F)c2C(N)=O)c1`, IC50 2290 nM. Against it:
- NC(=O)c1c(Nc2ccc(I)cc2F)cc(F)cc1OCC[C@@H](O)Cn1cccn1 — within 1.5-fold, 2070 nM
- CS(=O)(=O)Nc1cccc(Oc2cc(F)cc(Nc3ccc(I)cc3F)c2C(N)=O)c1 — 1.7-fold higher, 3800 nM
- NC(=O)c1c(Nc2ccc(I)cc2F)cc(F)cc1Oc1cccc(CS(N)(=O)=O)c1 — 1.5-fold higher, 3490 nM
- NC(=O)c1c(Nc2ccc(I)cc2F)cc(F)cc1OC[C@@H]1CCCN1 — within 1.5-fold, 3030 nM

These compounds were tested against Dual specificity mitogen-activated protein kinase kinase 1 (Homo sapiens, UniProt Q02750) (assay: Inhibition of MEK1 (unknown origin) after 2 hrs by fluorescence assay). Conditions: not given.
Chain of Dual specificity mitogen-activated protein kinase kinase 1 (Q02750 whole entry): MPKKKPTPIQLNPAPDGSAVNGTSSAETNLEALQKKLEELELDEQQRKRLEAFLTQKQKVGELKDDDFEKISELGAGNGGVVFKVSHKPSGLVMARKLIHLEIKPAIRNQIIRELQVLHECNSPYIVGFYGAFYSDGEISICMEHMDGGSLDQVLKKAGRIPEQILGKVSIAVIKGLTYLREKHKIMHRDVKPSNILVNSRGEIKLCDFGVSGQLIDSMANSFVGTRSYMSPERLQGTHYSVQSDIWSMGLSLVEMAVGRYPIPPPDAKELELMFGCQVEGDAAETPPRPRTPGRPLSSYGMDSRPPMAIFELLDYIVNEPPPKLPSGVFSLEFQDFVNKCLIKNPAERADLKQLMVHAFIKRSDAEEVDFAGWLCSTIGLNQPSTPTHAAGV

Point of comparison: `NC(=O)c1c(Nc2ccc(I)cc2F)cc(F)cc1Oc1cccc(CS(N)(=O)=O)c1`, IC50 32 nM. Against it:
- NC(=O)c1c(Nc2ccc(I)cc2F)cc(F)cc1OC[C@H](O)CCO — 2-fold higher, 63 nM
- NC(=O)c1c(Nc2ccc(I)cc2F)cc(F)cc1Oc1ccccc1 — 3.1-fold higher, 99 nM
- CN(C)S(=O)(=O)N1CCC[C@H]1COc1cc(F)cc(Nc2ccc(I)cc2F)c1C(N)=O — 31-fold higher, 1000 nM
- NC(=O)c1c(Nc2ccc(I)cc2F)cc(F)cc1OCC[C@@H](O)Cn1cccn1 — 2.5-fold lower, 13 nM
- CS(=O)(=O)Nc1cccc(Oc2cc(F)cc(Nc3ccc(I)cc3F)c2C(N)=O)c1 — 1.5-fold lower, 21 nM
- COc1cc(F)cc(Nc2ccc(I)cc2F)c1C(N)=O — 2.3-fold higher, 74 nM
- CC(=O)Nc1ccc(Oc2cc(F)cc(Nc3ccc(I)cc3F)c2C(N)=O)cc1 — 17-fold higher, 539 nM
- NC(=O)c1c(Nc2ccc(I)cc2F)cc(F)cc1Oc1ccc2cn[nH]c2c1 — 1.7-fold higher, 54 nM
- NC(=O)c1c(Nc2ccc(I)cc2F)cc(F)cc1OC[C@@H]1CCCN1 — within 1.5-fold, 26 nM

The compounds below were run on A-375 (assay: cells). Conditions: Homo sapiens, A-375, 72 h.
Description: Antiproliferative activity against human A375 cells expressing BRAF V600E mutant after 72 hrs by Cell titer-glo assay

Point of comparison: `CC(=O)Nc1ccc(Oc2cc(F)cc(Nc3ccc(I)cc3F)c2C(N)=O)cc1`, IC50 808 nM. Against it:
- NC(=O)c1c(Nc2ccc(I)cc2F)cc(F)cc1OC[C@H](O)CCO — 2.3-fold lower, 350 nM
- NC(=O)c1c(Nc2ccc(I)cc2F)cc(F)cc1Oc1ccccc1 — 2-fold lower, 408 nM
- CCS(=O)(=O)N1CCC[C@H]1COc1cc(F)cc(Nc2ccc(I)cc2F)c1C(N)=O — 2.5-fold lower, 323 nM
- CN(C)S(=O)(=O)N1CCC[C@H]1COc1cc(F)cc(Nc2ccc(I)cc2F)c1C(N)=O — within 1.5-fold, 1120 nM
- NC(=O)c1c(Nc2ccc(I)cc2F)cc(F)cc1OCC[C@@H](O)Cn1cccn1 — 5.4-fold lower, 151 nM
- CC(O)(CO)CCOc1cc(F)cc(Nc2ccc(I)cc2F)c1C(N)=O (stereo not given) — 3.4-fold lower, 240 nM
- CC(=O)Nc1cccc(Oc2cc(F)cc(Nc3ccc(I)cc3F)c2C(N)=O)c1 — 16-fold lower, 50 nM
- NC(=O)c1c(Nc2ccc(I)cc2F)cc(F)cc1OCC[C@H](O)CO — 3.4-fold lower, 240 nM
- CS(=O)(=O)Nc1cccc(Oc2cc(F)cc(Nc3ccc(I)cc3F)c2C(N)=O)c1 — 35-fold lower, 23 nM
- COc1cc(F)cc(Nc2ccc(I)cc2F)c1C(N)=O — 2.3-fold lower, 354 nM
- NC(=O)c1c(Nc2ccc(I)cc2F)cc(F)cc1Oc1cccc(CS(N)(=O)=O)c1 — 22-fold lower, 37 nM
- NC(=O)c1c(Nc2ccc(I)cc2F)cc(F)cc1Oc1ccc2cn[nH]c2c1 — 3.7-fold lower, 221 nM
- NC(=O)c1c(Nc2ccc(I)cc2F)cc(F)cc1OC[C@@H]1CCCN1 — 6.5-fold lower, 124 nM
- CN1CCC[C@H]1COc1cc(F)cc(Nc2ccc(I)cc2F)c1C(N)=O — within 1.5-fold, 973 nM
